Data as given in patent US20240002339A1, “THERAPEUTIC COMPOUNDS AND METHODS” (Regents of the University of Minnesota, priority 2022, published 2024).
pIC50, pKd: −log10 of the molar value.

What was measured:
CDK2 [1] = biological target: T1, CDK2 (Homo sapiens (Human), UniProt P24941); assay: p-Cl-ANS displacement assay (fluorescent binding assay)
CDK2 [2] = biological target: T1, CDK2; assay: Isothermal titration calorimetry (ITC); type: binding
CDK2/cyclin A = CDK2/cyclin A (Homo sapiens (Human), UniProt P24941); assay: ADP-Glo enzymatic activity assay; type: biochemical
GST-tagged CDK2 = GST-tagged CDK2 (Homo sapiens (Human), UniProt P24941); assay: Surface plasmon resonance (SPR); type: binding; conditions: read-out: SPR Kd (SSA)

Question: `O=C(O)c1cc(C(F)(F)F)ccc1NCCc1c[nH]c2cc(O)ccc12` [Example 95, 2-((2-(6-Hydroxy-1H-indol-3-yl)ethyl)amino)-5-(trifluoromethyl)benzoic acid] was tested. Which pIC50 (CDK2 [1]) did it give?
Answer: The pIC50 was 4.04.

Question: `COc1cc(NCCc2c[nH]c3ccccc23)c(C(=O)O)cc1OC` [Example 71, 2-((2-(1H-Indol-3-yl)ethyl)amino)-4,5-dimethoxybenzoic acid] was tested. Which pKd (CDK2 [2]) did it give?
Answer: The pKd was 5.00.

Question: `O=Cc1ccc(NCCc2c[nH]c3ccccc23)c(C(=O)O)c1` [Example 91, 2-((2-(1H-Indol-3-yl)ethyl)amino)-5-formylbenzoic acid] was tested. Which pIC50 (CDK2 [1]) did it give?
Answer: The pIC50 was 4.44.

Question: How did the pIC50 (CDK2 [1]) turn out when `Cc1c([N+](=O)[O-])ccc(NCCc2c[nH]c3ccccc23)c1C(=O)O` [Example 68, 6-((2-(1H-Indol-3-yl)ethyl)amino)-2-methyl-3-nitrobenzoic] was run?
Answer: The pIC50 was 5.31.

Question: Which results are given for `CCCc1ccc(NCCc2c[nH]c3ccccc23)c(C(=O)O)c1` [Example 81, 2-((2-(1H-Indol-3-yl)ethyl)amino)-5-propylbenzoic acid]?
Answer: pKd (CDK2 [2]): 5.19; pIC50 (CDK2 [1]): 5.25

Question: With `Cc1[nH]c2cc(F)ccc2c1CC(C)Nc1ccc(C(F)(F)F)cc1C(=O)O` (stereo not shown) [Example 47] as the compound, how does the pIC50 (CDK2 [1]) read?
Answer: Its pIC50 is 6.77.

Question: `Cc1cc(NCCc2c[nH]c3ccccc23)c(C(=O)O)cc1[N+](=O)[O-]` [Example 6] was tested. Which pKd (CDK2 [2]) did it give?
Answer: Its pKd is 5.24.

Question: And the pIC50 (CDK2 [1])?
Answer: Its pIC50 is 5.38.

Question: With `O=C(O)c1cc(-c2ccccc2)ccc1NCCc1c[nH]c2ccccc12` [Example 79, 4-((2-(1H-Indol-3-yl)ethyl)amino)-[1,1′-biphenyl]-3-carboxylic acid] as the compound, how does the pKd (CDK2 [2]) read?
Answer: The pKd was less than 4.00.

Question: What about the pIC50 (CDK2 [1]) of the same compound?
Answer: The pIC50 was 4.96.

Question: Which results are given for `Cc1cc(C(=O)O)c(NCCc2c[nH]c3ccccc23)cc1Cl` [Example 70, 2-((2-(1H-Indol-3-yl)ethyl)amino)-4-chloro-5-methylbenzoic acid]?
Answer: pKd (CDK2 [2]): 5.20; pIC50 (CDK2 [1]): 4.96

Question: `O=C(O)c1cc2ccccc2cc1NCCc1c[nH]c2ccccc12` [Example 43] was tested. Which pIC50 (CDK2 [1]) did it give?
Answer: The pIC50 was 5.57.

Question: `O=C(O)c1cc(C(F)(F)F)ccc1NCCc1c[nH]c2ccc([N+](=O)[O-])cc12` [Example 28] was tested. Which pIC50 (CDK2 [1]) did it give?
Answer: Its pIC50 is 6.18.

Question: How did the pIC50 (CDK2 [1]) turn out when `O=C(O)c1cc(C(F)(F)F)ccc1SCCc1c[nH]c2ccccc12` [Example 46] was run?
Answer: Its pIC50 is 6.00.

Question: How did the pIC50 (CDK2 [1]) turn out when `O=C(O)c1cc(SC(F)(F)F)ccc1NCCc1c(CO)[nH]c2ccccc12` [Example 64, 2-((2-(2-(Hydroxymethyl)-1H-indol-3-yl)ethyl)amino)-5-((trifluoromethyl)thio)benzoic acid] was run?
Answer: The pIC50 was 5.42.

Question: `O=C(O)c1cc(C(F)(F)F)ccc1NCCc1c[nH]c2cccc(O)c12` [Example 94, 2-((2-(4-Hydroxy-1H-indol-3-yl)ethyl)amino)-5-(trifluoromethyl)benzoic acid] was tested. Which pIC50 (CDK2 [1]) did it give?
Answer: Its pIC50 is 4.29.

Question: `COc1ccc2c(CCNc3ccc([N+](=O)[O-])cc3C(=O)O)c[nH]c2c1` [Example 23] was tested. Which pIC50 (CDK2 [1]) did it give?
Answer: The pIC50 was 5.82.

Question: How did the pIC50 (CDK2 [1]) turn out when `O=C(O)c1c(NCCc2c[nH]c3ccccc23)cccc1C(F)(F)F` [Example 89, 2-((2-(1H-Indol-3-yl)ethyl)amino)-6-(trifluoromethyl)benzoic acid] was run?
Answer: The pIC50 was 3.92.

Question: What does the source list for `O=C(O)c1cc(C(F)(F)F)ccc1NCCc1c[nH]c2cc(Cl)ccc12` [Example 35]?
Answer: pIC50 (CDK2/cyclin A): 7.06; pKd (GST-tagged CDK2): 7.62; pKd (CDK2 [2]): 7.51; pIC50 (CDK2 [1]): 7.04

Question: `CCSc1ccc(NCCc2c[nH]c3ccccc23)c(C(=O)O)c1` [Example 85, 2-((2-(1H-Indol-3-yl)ethyl)amino)-5-(ethylthio)benzoic acid] was tested. Which pKd (CDK2 [2]) did it give?
Answer: Its pKd is 5.04.

Question: With `O=C(O)c1cc([N+](=O)[O-])ccc1NCCc1c[nH]c2ccc(F)cc12` [Example 19] as the compound, how does the pIC50 (CDK2 [1]) read?
Answer: The pIC50 was 5.60.

Question: With `Cc1[nH]c2cc(Cl)cc(Cl)c2c1CCNc1ccc(C(F)(F)F)cc1C(=O)O` [Example 44] as the compound, how does the pIC50 (CDK2 [1]) read?
Answer: The pIC50 was 6.03.

Question: `O=C(O)c1c(O)cccc1NCCc1c[nH]c2ccccc12` [Example 8] was tested. Which pKd (CDK2 [2]) did it give?
Answer: Its pKd is 5.23.

Question: And the pIC50 (CDK2 [1])?
Answer: The pIC50 was 4.70.

Question: How did the pIC50 (CDK2 [1]) turn out when `FC(F)(F)c1ccc(NCCc2c[nH]c3ccccc23)c(-c2nnn[nH]2)c1` [Example 33] was run?
Answer: Its pIC50 is 5.18.

Question: How did the pKd (CDK2 [2]) turn out when `O=C(O)c1c(NCCc2c[nH]c3ccccc23)cccc1[N+](=O)[O-]` [Example 88, 2-((2-(1H-Indol-3-yl)ethyl)amino)-6-nitrobenzoic acid] was run?
Answer: The pKd was 4.10.

Question: And the pIC50 (CDK2 [1])?
Answer: The pIC50 was 4.03.

Question: `O=C(O)c1cc(C(F)(F)F)ccc1NCCc1c(CO)[nH]c2ccccc12` [Example 27] was tested. Which pIC50 (CDK2 [1]) did it give?
Answer: Its pIC50 is 6.20.

Question: What does the source list for `CC(C)(C)c1ccc(NCCc2c[nH]c3ccccc23)c(C(=O)O)c1` [Example 80, 2-((2-(1H-Indol-3-yl)ethyl)amino)-5-(tert-butyl)benzoic acid]?
Answer: pKd (CDK2 [2]): < 4.00; pIC50 (CDK2 [1]): 4.68

Question: With `N#Cc1cccc(NCCc2c[nH]c3ccccc23)c1C(=O)O` [Example 90, 2-((2-(1H-Indol-3-yl)ethyl)amino)-6-cyanobenzoic acid] as the compound, how does the pIC50 (CDK2 [1]) read?
Answer: Its pIC50 is 4.43.

Question: With `N#Cc1ccc2[nH]cc(CCNc3ccc(C(F)(F)F)cc3C(=O)O)c2c1` [Example 29] as the compound, how does the pIC50 (CDK2 [1]) read?
Answer: The pIC50 was 5.21.

Question: With `O=C(O)c1cc(C(F)(F)F)ccc1NCCc1c[nH]c2cc(F)ccc12` [Example 34] as the compound, how does the pKd (CDK2 [2]) read?
Answer: Its pKd is 6.68.

Question: And the pIC50 (CDK2 [1])?
Answer: The pIC50 was 6.77.

Question: `Cc1[nH]c2c(Cl)c(Cl)ccc2c1CCNc1ccc(C(F)(F)F)cc1C(=O)O` [Example 45] was tested. Which pIC50 (CDK2 [1]) did it give?
Answer: Its pIC50 is 5.80.

Question: `O=C(O)c1cc([N+](=O)[O-])ccc1NCCc1c(C(=O)O)[nH]c2ccccc12` [Example 93, 3-(2-((2-Carboxy-4-nitrophenyl)amino)ethyl)-1H-indole-2-carboxylic acid] was tested. Which pIC50 (CDK2 [1]) did it give?
Answer: Its pIC50 is 4.80.

Question: With `O=C(O)c1cc([N+](=O)[O-])ccc1NCCc1c[nH]c2cccc(F)c12` [Example 17] as the compound, how does the pIC50 (CDK2 [1]) read?
Answer: Its pIC50 is 5.68.

Question: With `Nc1c([N+](=O)[O-])ccc(NCCc2c[nH]c3ccccc23)c1C(=O)O` [Example 7] as the compound, how does the pKd (CDK2 [2]) read?
Answer: The pKd was 5.36.

Question: And the pIC50 (CDK2 [1])?
Answer: Its pIC50 is 5.39.

Question: `O=C(O)c1cc2c(cc1NCCc1c[nH]c3ccccc13)OCCO2` [Example 73, 7-((2-(1H-Indol-3-yl)ethyl)amino)-2,3-dihydrobenzo[b][1,4]dioxine-6-carboxylic acid] was tested. Which pKd (CDK2 [2]) did it give?
Answer: The pKd was 4.52.

Question: With `N#Cc1ccc2c(CCNc3ccc(SC(F)(F)F)cc3C(=O)O)c[nH]c2c1` [Example 67, 2-((2-(6-Cyano-1H-indol-3-yl)ethyl)amino)-5-((trifluoromethyl)thio)benzoic acid] as the compound, how does the pIC50 (CDK2 [1]) read?
Answer: Its pIC50 is greater than 7.00.

Question: `O=C(O)c1cc(SC(F)(F)F)ccc1NCCc1c[nH]c2cc(Br)ccc12` [Example 66, 2-((2-(6-Bromo-1H-indol-3-yl)ethyl)amino)-5-((trifluoromethyl)thio)benzoic acid] was tested. Which pIC50 (CDK2 [1]) did it give?
Answer: Its pIC50 is 6.77.

Question: How did the pIC50 (CDK2 [1]) turn out when `FC(F)(F)c1ccc(NCCc2c[nH]c3cc(Br)ccc23)c(-c2nnn[nH]2)c1` [Example 37] was run?
Answer: Its pIC50 is 6.20.

Question: How did the pIC50 (CDK2 [1]) turn out when `O=C(O)c1cc(F)c(F)cc1NCCc1c[nH]c2ccccc12` [Example 41] was run?
Answer: Its pIC50 is 5.62.

Question: How did the pIC50 (CDK2 [1]) turn out when `O=C(O)c1cc2c(cc1NCCc1c[nH]c3ccccc13)CCCC2` [Example 42] was run?
Answer: The pIC50 was 5.17.

Question: `O=C(O)c1cc(OC(F)(F)F)ccc1NCCc1c[nH]c2cc(Br)ccc12` [Example 63, 2-((2-(6-Bromo-1H-indol-3-yl)ethyl)amino)-5-(trifluoromethoxy)benzoic acid] was tested. Which pIC50 (CDK2 [1]) did it give?
Answer: Its pIC50 is greater than 7.00.

Question: What does the source list for `O=C(O)c1c(NCCc2c[nH]c3ccccc23)ccc([N+](=O)[O-])c1O` [Example 9]?
Answer: pKd (CDK2 [2]): 6.44; pIC50 (CDK2 [1]): 6.18

Question: `COc1cc(NCCc2c[nH]c3ccccc23)c(C(=O)O)cc1Br` [Example 69, 2-((2-(1H-Indol-3-yl)ethyl)amino)-5-bromo-4-methoxybenzoic acid] was tested. Which pIC50 (CDK2 [1]) did it give?
Answer: Its pIC50 is 4.55.

Question: With `O=C(O)c1cc([N+](=O)[O-])ccc1NCCc1c[nH]c2c(F)cccc12` [Example 20] as the compound, how does the pIC50 (CDK2 [1]) read?
Answer: Its pIC50 is 5.22.

Question: How did the pIC50 (CDK2 [1]) turn out when `O=C(O)c1cc([N+](=O)[O-])ccc1NCCc1c[nH]c2cc(OC(F)(F)F)ccc12` [Example 25] was run?
Answer: The pIC50 was 6.03.

Question: `CCc1ccc(NCCc2c[nH]c3ccccc23)c(C(=O)O)c1` [Example 77, 2-((2-(1H-Indol-3-yl)ethyl)amino)-5-ethylbenzoic acid] was tested. Which pKd (CDK2 [2]) did it give?
Answer: The pKd was 4.66.

Question: And the pIC50 (CDK2 [1])?
Answer: Its pIC50 is 4.74.

Question: `Cc1ccc(NCCc2c[nH]c3ccccc23)c(C(=O)O)c1` [Example 76, 2-((2-(1H-Indol-3-yl)ethyl)amino)-5-methylbenzoic acid] was tested. Which pKd (CDK2 [2]) did it give?
Answer: Its pKd is 4.44.

Question: With `CCOc1cc(NCCc2c[nH]c3cc(C#N)ccc23)c(C(=O)O)cc1OCC` [Example 62, 2-((2-(6-Cyano-1H-indol-3-yl)ethyl)amino)-4,5-diethoxybenzoic acid] as the compound, how does the pIC50 (CDK2 [1]) read?
Answer: Its pIC50 is 6.11.

Question: `O=C(O)c1cc(SC(F)(F)F)ccc1NCCc1c[nH]c2ccccc12` [Example 40] was tested. Which pIC50 (CDK2 [1]) did it give?
Answer: The pIC50 was 6.82.

Question: With `O=C(O)c1cc(C(F)(F)F)ccc1NCCc1c[nH]c2c(O)cccc12` [Example 31] as the compound, how does the pIC50 (CDK2 [1]) read?
Answer: The pIC50 was 5.47.

Question: With `O=C(O)c1cc(OC(F)(F)F)ccc1NCCc1c[nH]c2cc(F)ccc12` [Example 48] as the compound, how does the pIC50 (CDK2 [1]) read?
Answer: The pIC50 was 6.74.

Question: How did the pIC50 (CDK2 [1]) turn out when `O=C(O)c1cc(SC(F)(F)F)ccc1NCCc1c(CO)[nH]c2cc(Br)ccc12` [Example 65, 2-((2-(6-Bromo-2-(hydroxymethyl)-1H-indol-3-yl)ethyl)amino)-5-((trifluoromethyl)thio)benzoic acid] was run?
Answer: The pIC50 was 6.47.
